Several values for one entry are separate records, joined by “and”; a condition that tells them apart may be missing. Equal values may be shown once.
How the values were obtained:
[1] = target: HIS-Keap1 full length / Biotin-Nrf2 (16-mer) (Homo sapiens, UniProt Q14145); experiment: biochemical
[2] = test system: NQO1 activation in BEAS-2B cells; experiment: BEAS-2B cellular MTT assay of NQO1 activation, 0.3% HSA; assay type: cell-based
Procedure, shortened: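 MTT read-out in BEAS-2B cells grown in BEBM with SingleQuots, no GA-1000, kept below 70% confluence; plates coated with collagen, with 0.3% or 0% HSA medium, seeded to 95-100% confluency at 48 h, 37 °C, 5% CO2.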

[3] = test system: NQO1 activation in BEAS-2B cells; experiment: BEAS-2B cellular MTT assay of NQO1 activation, 0% HSA; assay type: cell-based
Procedure, shortened: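 For the 0% HSA condition, cells were seeded into collagen plates in HSA-free medium. Culture was BEAS-2B in BEBM plus BEGM SingleQuots lacking GA-1000, held under 70% confluence, at a seeding density reaching 95-100% confluence by 48 h.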

[4] = Homo sapiens, BEAS+, read-out: BEAS+ EC50
[5] = Homo sapiens, serum free, read-out: BEAS EC50 (nM) serum free
[6] = serum free, read-out: BEAS EC50 (nM) serum free
[7] = Homo sapiens, BEAS+ W, read-out: BEAS+ W EC50
[8] = Homo sapiens, Serum Free W, read-out: BEAS EC50 (nM) Serum Free W
[9] = BEAS+ W, read-out: BEAS+ W EC50
[10] = Serum Free W, read-out: BEAS EC50 (nM) Serum Free W

HIS-Keap1 full length / Biotin-Nrf2 (16-mer), sequence (Q14145 whole entry): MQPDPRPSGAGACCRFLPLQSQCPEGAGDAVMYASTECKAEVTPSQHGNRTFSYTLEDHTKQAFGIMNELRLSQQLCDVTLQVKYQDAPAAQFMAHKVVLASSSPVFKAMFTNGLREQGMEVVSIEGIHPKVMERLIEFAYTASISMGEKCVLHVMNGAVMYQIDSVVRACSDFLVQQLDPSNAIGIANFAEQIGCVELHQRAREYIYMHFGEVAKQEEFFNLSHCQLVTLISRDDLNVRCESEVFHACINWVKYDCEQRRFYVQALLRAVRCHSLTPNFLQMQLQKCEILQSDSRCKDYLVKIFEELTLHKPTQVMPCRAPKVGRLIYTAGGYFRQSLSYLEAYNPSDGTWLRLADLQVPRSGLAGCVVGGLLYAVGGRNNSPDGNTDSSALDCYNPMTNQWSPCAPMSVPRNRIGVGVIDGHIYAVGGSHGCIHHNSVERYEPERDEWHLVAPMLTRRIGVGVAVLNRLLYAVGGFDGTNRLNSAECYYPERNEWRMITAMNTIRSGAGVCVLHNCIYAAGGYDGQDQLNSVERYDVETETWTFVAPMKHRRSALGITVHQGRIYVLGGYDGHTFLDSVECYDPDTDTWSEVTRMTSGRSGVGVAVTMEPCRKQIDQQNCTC

SMILES | IC50 [1] | EC50 ([2]; BEAS+, read-out: BEAS+ EC50) | EC50 [2, 4] | EC50 [3, 5] | EC50 [3, 6] | EC50 [2, 7] | EC50 [3, 8] | EC50 [2, 9] | EC50 [3, 10]
Cc1cc2ccc1C(=O)N1CCc3ccc(cc3C1)C(CC(=O)O)c1cnc3c(nnn3CCCCCCO2)c1C (stereo not drawn) [Compound 218] | 0.8 nM | 37.5 nM | 29.3 nM | 27.5 nM | 39.7 nM | – | – | – | –
Cc1c2ccc3c1nnn3CCCCCOc1ccc(cc1)C(=O)N1CCc3ccc(cc3C1)C2CC(=O)O (stereo not drawn) [Compound 331] | 1.7 nM and 4.3 nM and 2.6 nM and 10.9 nM | – | 40.3 nM | 47.4 nM | – | – | – | – | –
Cc1c2ccc3c1nnn3CCCCCOc1ccc3ccc(cc3c1)C(=O)N1CCc3ccc(cc3C1)C2CC(=O)O (stereo not drawn) [Compound 388] | 1.6 nM | 876 nM | 464 nM | 51.4 nM | 44.2 nM | – | – | – | –
Cc1c2ccc3c1nnn3CCCCCCOc1ccc(cc1)C(=O)N1CCc3ccc(cc3C1)[C@H]2[C@H](C)C(=O)O [Compound 159] | 6.9 nM and 7.2 nM | 480 nM | 461 nM | 113 nM | 122 nM | – | – | – | –
Cc1cc2ccc1C(=O)N1CCc3ccc(cc3C1)C(CC(=O)O)c1cnc(cc1C)OCCCCO2 (stereo not drawn) [Compound 151] | 2.4 nM and 2.7 nM | 121 nM | 230 nM | 216 nM | 170 nM | – | – | – | –
O=C(O)CC1c2ccc3c(c2)CN(CC3)C(=O)c2ncc(cc2F)OCCCCCCn2nnc3c(Cl)c1ccc32 (stereo not drawn) [Compound 213] | 1.5 nM and 1.6 nM | 126 nM | 147 nM | 118 nM | 98.4 nM | – | – | – | –
Cc1nc2ccc1C(CC(=O)O)c1ccc3c(c1)CN(CC3)C(=O)c1c(F)cc(cc1F)OCCCCO2 (stereo not drawn) [Compound 180] | 253 nM and 296 nM | 1000 nM | 1300 nM | 701 nM | 878 nM | – | – | – | –
O=C(O)CC1c2ccc(cc2)OCCCCCOc2ccc(cc2)C(=O)N2CCc3ccc1cc3C2 (stereo not drawn) [Compound 399] | > 1000 nM and 335 nM | 2000 nM | 1980 nM | 479 nM | 407 nM | – | – | – | –
Cc1cc2ccc1C(=O)N1CCc3ccc(cc3C1)C(CC(=O)O)c1cnc(nc1)OCCCCO2 (stereo not drawn) [Compound 182] | 55.7 nM and 44 nM | – | – | – | – | > 10000 nM | > 1000 nM | – | –
Cc1c2ccc3c1nnn3CCCCCCOc1ccc(cc1)C(=O)N1CCc3ccc(cc3C1)[C@@H]2[C@H](C)C(=O)O [Compound 179] | 5.7 nM | 208 nM | 235 nM | 113 nM | 91.5 nM | – | – | – | –
Cc1c2ccc3c1nnn3CCCCCCc1ccc(c(F)c1)C(=O)N1CCc3ccc(cc3C1)C2CC(=O)O (stereo not drawn) [Compound 272] | 1.1 nM and 1.3 nM | – | 3.3 nM | 2.5 nM | – | – | – | – | –
O=C(O)C[C@@H]1c2cnc(nc2)OCCCCCc2c(F)c(F)c(c(F)c2F)C(=O)N2CCc3ccc1cc3C2 [Compound 44] | 6.7 nM and 5.1 nM | – | – | – | – | 1560 nM | 393 nM | – | –
Cc1cc2ncc1[C@H]([C@@H](C)C(=O)O)c1ccc3c(c1)CN(CC3)C(=O)c1ccc(cc1)CCCCCO2 [Compound 75] | 21.7 nM and 22.7 nM | – | – | – | – | 45.2 nM | 9.1 nM | 60 nM | 16 nM
Cc1c2ccc3c1nnn3CCCCCCc1c(F)c(F)c(c(F)c1F)C(=O)N1CCc3ccc(cc3C1)[C@@H]2CC(=O)O [Compound 90] | 1.1 nM | – | – | – | – | 3.6 nM | 1.3 nM | 3.5 nM | 1 nM
Cc1c2ccc3c1nnn3CCCCCCOc1ccc(cn1)C(=O)N1CCc3ccc(cc3C1)C2CC(=O)O (stereo not drawn) [Compound 378] | 7.7 nM and 8 nM | 155 nM | 213 nM | 133 nM | 139 nM | – | – | – | –
O=C(O)C[C@@H]1c2cnc(nc2)OCC/C=C/Cc2c(F)c(F)c(c(F)c2F)C(=O)N2CCc3ccc1cc3C2 [Compound 40] | 46.2 nM and 53.6 nM | – | – | – | – | 3580 nM | > 1000 nM | – | –
Cn1cc2c3ccc(cc31)CCCCOc1ccc(cn1)C(CC(=O)O)c1ccc3c(c1)CN(CC3)C2=O (stereo not drawn) [Compound 121] | > 990 nM | – | – | – | – | > 10000 nM | > 1000 nM | – | –
Cc1c2ccc3c1nnn3CCCCCCc1ccc(c(F)c1)C(=O)N1CCc3ccc(cc3C1)[C@H]2[C@@H](C)C(=O)O [Compound 141] | > 990 nM | – | – | – | – | 7200 nM | > 1000 nM | 7040 nM | –
Cc1c2ccc3c1nnn3CCOCCCc1ccc(c(F)c1)C(=O)N1CCc3ccc(cc3C1)[C@@H]2CC(=O)O [Compound 364] | 1.7 nM and 1.6 nM | – | – | – | – | 98.8 nM | 56 nM | 92.6 nM | 68.3 nM
Cc1c2ccc3c1nnn3CCCCCCc1ccc(nc1)C(=O)N1CCc3ccc(cc3C1)C2CC(=O)O (stereo not drawn) [Compound 230] | 4.8 nM | 961 nM | 1090 nM | 384 nM | 471 nM | – | – | – | –

From US12692274B2, “Tetrahydroisoquinoline derivatives for the treatment of red blood disorders and inflammatory diseases” (Sanofi, priority 2020, dated 2026)
